In one assay the test system is Purified mammalian Hsp90. The assay is described as follows: Hsp90 binding on CM-5 BIAcore chip (surface plasmon resonance). The note with it: RU value versus drug concentration; FIG. 11. An excerpt: Inhibition of Hsp90 can be evaluated by surface plasmon resonance studies of a compound of formula I, using a CM-5 Biacore chip on which Hsp90 (Stressgen, Ann Arbor) has been immobilized. This method can also be used to evaluate the chaperoning activity of a compound of formula I by evaluation of luciferase refolding. See Examples 4 and 9.
Purified mammalian Hsp90 was attached to a CM-5 BIAcore chip through an NHS ester linkage. After attachment of the Hsp90 and blocking the chip with BSA, M1 drug or a 17-AAG control was circulated through a microfluidic circuit and change in refractive index was measured by quantification of the RU value for each drug concentration. In the case of the 17-AAG control the binding was saturable and based on the kon and koff measurements, the KD was estimated to be in the 1 microM range. […] This means that there are significant differences in the binding of M-1 and may indicate alteration of the Hsp90 structure.
(In general: In SPR one partner is held on a chip, and binding of the other changes the refractive index at the surface.)

Assay [1] relates to H522 adenocarcinoma non-small cell lung cancer cell. Briefly: MTT proliferation assay, H522. The note with it: 10 to 80 μmol/L, 48 hours, FIG. 18. The class given is cell-based. The method, then:
H522 adenocarcinoma non-small cell lung cancer cell proliferation was measured in 96-well plates by a 3-(4,5-dimethylthiazol-2-yl)-2,5 diphenyltetrazolium bromide (MTT) assay that measures reduction of MTT in 96-well plates (see Ohno M, Abe T. J Immunol Methods, 1991 Dec. 15; 145(1-2):199-203). The cells were exposed to 10 to 80 μmol/L ritonavir, M1 or DMSO vehicle for 48 hours and proliferation was subsequently quantified by MTT assay. The MTT was added to the medium at the endpoint and the plate was incubated for 2 hours. The plate was then centrifuged in an Allegra plate centrifuge at 2000 rpm for 5 minutes. The medium was removed, and the pellet was dissolved in 100 μL of DMSO per well. The pellet was dissolved using a gently vibrating platform. The plates were read with a BioTek Synergy plate reader in colorimetric mode at 540 nm. Each assay was performed in octuplicate for each data point.
Background: Tetrazolium dyes change colour on reduction, which living cells bring about.

Turning to `CC(C)c1nc(CN(C)C(=O)NC(C(=O)NC(Cc2ccccc2)CC(O)C(N)Cc2ccccc2)C(C)C)cs1` (centres unmarked) [M1, desthiazolyl ritonavir], in the assay with Purified mammalian Hsp90, the “binding to Hsp90, saturability” value was “the binding is not saturable”. For the same compound, the “measured cell proliferation compared to cells exposed to ritonavir or DMSO” value in assay [1] is “lower”.

The record behind these values is patent US8501792B2, “Treating cancer with desthiazolyl ritonavir” (priority 2008, dated 2013).
